Test results from PMC11844072, “Novel 5,6-dichlorobenzimidazole derivatives as dual BRAFWT and BRAFV600E inhibitors: design, synthesis, anti-cancer activity and molecular dynamics simulations” (BMC Chemistry, 2025).

Columns and labels:
786-0 = test: NCI 60 single concentration growth inhibition; format: cell-based, human; details: Homo sapiens, 786-0, Renal cancer, read-out: GI%
Method: (§1) The synthesized dichlorobenzimidazoles 10a–p were assayed for their influence on divers cancer cell lines according to the method presented in the Additional file A.
(§2) 5. Screening of cytotoxic activity against a panel of sixty human tumor cell lines
(§3) The selected compounds by NCI were evaluated for their anticancer activity in a two-stage process. First, these compounds were screened against the full NCI 60 cell lines panel at a single high dose of 10 µM. Then, the output from the single dose screen is reported as a mean graph. […]
(§4) at five different minimal concentrations.
(§5) Assay protocol. The human tumor cell lines of the cancer screening panel are grown in RPMI 1640 medium containing 5% fetal bovine serum and 2 mM L-glutamine. For a typical screening experiment, cells are inoculated into 96 well microtiter plates in 100 µL at plating densities ranging from 5000 to 40,000 cells/well depending on the doubling time of individual cell lines. After cell inoculation, the microtiter plates are incubated at 37 °C, 5% CO 2, 95% air and 100% relative humidity for 24 h prior to addition of the experimental drugs.
(§6) After 24 h, two plates of each cell line are fixed in situ with TCA, to represent a measurement of the cell population for each cell line at the time of drug addition (Tz). The experimental drugs are solubilized in dimethyl sulfoxide at 400-fold the desired final maximum test concentration and stored frozen prior to use. At the time of drug addition, an aliquot of frozen concentrate is thawed and diluted to twice the desired final maximum test concentration with complete medium containing 50 µg/mL gentamicin. Additional four, 10-fold or ½ log serial dilutions are made to provide a total of five drug concentrations plus control.
(§7) Aliquots of […] of these different drug dilutions are added to the appropriate microtiter wells already containing […] of medium, resulting in the required final drug concentrations.
(§8) Following drug addition, the plates are incubated for an additional 48 h at 37 °C, 5% CO 2, 95% air, and 100% relative humidity. For adherent cells, the assay is terminated by the addition of cold TCA.
(§9) Cells are fixed in situ by the gentle addition of 50 µL of cold 50% (w/v) TCA (final concentration, 10% TCA) and incubated for 60 min at 4 °C. The supernatant is discarded, and the plates are washed five times with tap water and air dried. Sulforhodamine B (SRB) solution ([…]) at 0.4% (w/v) in 1% acetic acid is added to each well, and plates are incubated for 10 min at room temperature. After staining, unbound dye is removed by washing five times with 1% acetic acid and the plates are air dried. Bound stain is subsequently solubilized with 10 mM trizma base, and the absorbance is read on an automated plate reader at a wavelength of 515 nm. For suspension cells, the methodology is […]
(§10) the same except that the assay is terminated by fixing settled cells at the bottom of the wells by gently adding 50 µl of 80% TCA (final concentration, 16% TCA). Using the seven absorbance measurements [time zero, (Tz), control growth, (C), and test growth in the presence of drug at the five concentration levels (Ti)], the percentage growth is calculated at each of the drug concentrations […]
(§11) Percentage growth inhibition is calculated as: [(Ti Tz)/(C–Tz)] x 100 for concentrations for which Ti>/=Tz and [(Ti-Tz)/Tz] x 100 for concentrations for which Ti < Tz.
(§12) Three dose response parameters are calculated for each experimental agent. Growth […]
(§13) concentration resulting in a 50% reduction in the net protein increase (as measured by SRB staining) in control cells during the drug incubation. The drug concentration resulting in total growth inhibition (TGI) is calculated from Ti = Tz. […]
(§14) reduction in the measured protein at the end of the drug treatment as compared to that at the beginning) indicating a net loss of cells following treatment is calculated from [(Ti–Tz)/Tz] x 100 =
(§15) _50. Values are calculated for each of these three parameters if the level of activity is reached; […]

A549/ATCC = test: NCI 60 single concentration growth inhibition; format: cell-based, human; details: Homo sapiens, Non-small cell lung cancer, read-out: GI%
Method: as §1, §2, §3, §4, §5, §6, §7, §8, §9, §10, §11, §12, §13, §14, §15

ACHN = test: NCI 60 single concentration growth inhibition; format: cell-based, human; details: Homo sapiens, Renal cancer, read-out: GI%
Method: as §1, §2, §3, §4, §5, §6, §7, §8, §9, §10, §11, §12, §13, §14, §15

BT-549 = test: NCI 60 single concentration growth inhibition; format: cell-based, human; details: Homo sapiens, BT-549, Breast cancer, read-out: GI%
Method: as §1, §2, §3, §4, §5, §6, §7, §8, §9, §10, §11, §12, §13, §14, §15

EKVX = test: NCI 60 single concentration growth inhibition; format: cell-based, human; details: Homo sapiens, Non-small cell lung cancer, read-out: GI%
Method: as §1, §2, §3, §4, §5, §6, §7, §8, §9, §10, §11, §12, §13, §14, §15

KM12 = test: NCI 60 single concentration growth inhibition; format: cell-based, human; details: Homo sapiens, KM12, Colon cancer, read-out: GI%
Method: as §1, §2, §3, §4, §5, §6, §7, §8, §9, §10, §11, §12, §13, §14, §15

M14 = test: NCI 60 single concentration growth inhibition; format: cell-based, human; details: Homo sapiens, M14, Melanoma, read-out: GI%
Method: as §1, §2, §3, §4, §5, §6, §7, §8, §9, §10, §11, §12, §13, §14, §15

MCF7 = test: NCI 60 single concentration growth inhibition; format: cell-based, human; details: Homo sapiens, MCF7, Breast cancer, read-out: GI%
Method: as §1, §2, §3, §4, §5, §6, §7, §8, §9, §10, §11, §12, §13, §14, §15

MDA-MB-435 = test: NCI 60 single concentration growth inhibition; format: cell-based, human; details: Homo sapiens, MDA-MB-435, Melanoma, read-out: GI%
Method: as §1, §2, §3, §4, §5, §6, §7, §8, §9, §10, §11, §12, §13, §14, §15

MOLT-4 = test: NCI 60 single concentration growth inhibition; format: cell-based, human; details: Homo sapiens, MOLT-4, Leukemia, read-out: GI%
Method: as §1, §2, §3, §4, §5, §6, §7, §8, §9, §10, §11, §12, §13, §14, §15

NCI-H226 = test: NCI 60 single concentration growth inhibition; format: cell-based, human; details: Homo sapiens, NCI-H226, Non-small cell lung cancer, read-out: GI%
Method: as §1, §2, §3, §4, §5, §6, §7, §8, §9, §10, §11, §12, §13, §14, §15

OVCAR-5 = test: NCI 60 single concentration growth inhibition; format: cell-based, human; details: Homo sapiens, OVCAR-5, Ovarian cancer, read-out: GI%
Method: as §1, §2, §3, §4, §5, §6, §7, §8, §9, §10, §11, §12, §13, §14, §15

OVCAR-8 = test: NCI 60 single concentration growth inhibition; format: cell-based, human; details: Homo sapiens, OVCAR-8, Ovarian cancer, read-out: GI%
Method: as §1, §2, §3, §4, §5, §6, §7, §8, §9, §10, §11, §12, §13, §14, §15

PC-3 = test: NCI 60 single concentration growth inhibition; format: cell-based, human; details: Homo sapiens, PC-3, Prostate cancer, read-out: GI%
Method: as §1, §2, §3, §4, §5, §6, §7, §8, §9, §10, §11, §12, §13, §14, §15

RPMI-8226 = test: NCI 60 single concentration growth inhibition; format: cell-based, human; details: Homo sapiens, RPMI-8226, Leukemia, read-out: GI%
Method: as §1, §2, §3, §4, §5, §6, §7, §8, §9, §10, §11, §12, §13, §14, §15

RXF 393 = test: NCI 60 single concentration growth inhibition; format: cell-based, human; details: Homo sapiens, RXF 393, Renal cancer, read-out: GI%
Method: as §1, §2, §3, §4, §5, §6, §7, §8, §9, §10, §11, §12, §13, §14, §15

SF-268 = test: NCI 60 single concentration growth inhibition; format: cell-based, human; details: Homo sapiens, SF-268, CNS cancer, read-out: GI%
Method: as §1, §2, §3, §4, §5, §6, §7, §8, §9, §10, §11, §12, §13, §14, §15

SF-295 = test: NCI 60 single concentration growth inhibition; format: cell-based, human; details: Homo sapiens, SF-295, CNS cancer, read-out: GI%
Method: as §1, §2, §3, §4, §5, §6, §7, §8, §9, §10, §11, §12, §13, §14, §15

SN12C = test: NCI 60 single concentration growth inhibition; format: cell-based, human; details: Homo sapiens, Renal cancer, read-out: GI%
Method: as §1, §2, §3, §4, §5, §6, §7, §8, §9, §10, §11, §12, §13, §14, §15

T-47D = test: NCI 60 single concentration growth inhibition; format: cell-based, human; details: Homo sapiens, T47D, Breast cancer, read-out: GI%
Method: as §1, §2, §3, §4, §5, §6, §7, §8, §9, §10, §11, §12, §13, §14, §15

UACC-257 = test: NCI 60 single concentration growth inhibition; format: cell-based, human; details: Homo sapiens, UACC-257, Melanoma, read-out: GI%
Method: as §1, §2, §3, §4, §5, §6, §7, §8, §9, §10, §11, §12, §13, §14, §15

[1] = tested on: NCI 60 cancer cell line panel; test: NCI 60 single concentration growth inhibition, panel mean; format: cell-based; details: Homo sapiens, mean over NCI 60 panel, read-out: Mean GI%
Method: as §1, §2, §3, §4, §5, §6, §7, §8, §9, §10, §11, §12, §13, §14, §15

SMILES | inhibition at 10 µM (786-0) | inhibition at 10 µM (A549/ATCC) | inhibition at 10 µM (ACHN) | inhibition at 10 µM (BT-549) | inhibition at 10 µM (EKVX) | inhibition at 10 µM (KM12) | inhibition at 10 µM (M14) | inhibition at 10 µM (MCF7) | inhibition at 10 µM (MDA-MB-435) | inhibition at 10 µM (MOLT-4) | inhibition at 10 µM (NCI-H226) | inhibition at 10 µM (OVCAR-5) | inhibition at 10 µM (OVCAR-8) | inhibition at 10 µM (PC-3) | inhibition at 10 µM (RPMI-8226) | inhibition at 10 µM (RXF 393) | inhibition at 10 µM (SF-268) | inhibition at 10 µM (SF-295) | inhibition at 10 µM (SN12C) | inhibition at 10 µM (T-47D) | other results
COc1ccc(-c2nc3cc(Cl)c(Cl)cc3n2CC(=O)NN=Cc2cccc(O)c2)cc1 [Compound 10a, 2-(5,6-Dichloro-2-(4-methoxyphenyl)-1H-benzo[d]imidazol-1-yl)-N'-(3-hydroxybenzylidene)acetohydrazide] | 28.6% | 62.5% | 40% | 47.8% | 76.6% | 41% | 41.1% | 80.6% | 45.9% | 70.4% | 43.7% | 20.5% | 29.5% | 57.8% | 67.4% | 44.4% | 51.5% | 67.8% | 31.3% | 69.7% | inhibition at 10 µM (UACC-257): 57.7%; inhibition at 10 µM [1]: 46.9%
COc1ccc(-c2nc3cc(Cl)c(Cl)cc3n2CC(=O)NN=Cc2ccc(O)cc2)cc1 [Compound 10b, 2-(5,6-Dichloro-2-(4-methoxyphenyl)-1H-benzo[d]imidazol-1-yl)-N'-(4-hydroxybenzylidene)acetohydrazide] | 34.8% | 57.2% | 33.4% | 65.6% | 52.6% | 26.3% | 39.1% | 74.2% | 39.1% | 77.2% | 35.5% | < 5% | 28% | 40.7% | 62.1% | 41.2% | 52.5% | 34% | 18% | 56.4% | inhibition at 10 µM (UACC-257): 23.9%; inhibition at 10 µM [1]: 38.5%
